Laboratory results reported in PubChem BioAssay (NCI).
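At the GI50, growth is halved. TGI: total growth inhibition.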

How the values were obtained:
Assay in all cases: inhibition of tumour cell growth, NCI panel, 384-well format
SK-MEL-5 melanoma = tested on: SK-MEL-5 melanoma
RPMI-8226 leukemia = tested on: RPMI-8226 leukemia
SF-268 CNS = tested on: SF-268 CNS
OVCAR-4 ovarian = tested on: OVCAR-4 ovarian
UACC-257 melanoma = tested on: UACC-257 melanoma
HCT-116 colon = tested on: HCT-116 colon
DU-145 prostate = tested on: DU-145 prostate
NCI-H23 lung = tested on: NCI-H23 lung
OVCAR-8 ovarian = tested on: OVCAR-8 ovarian
MALME-3M melanoma = tested on: MALME-3M melanoma
OVCAR-5 ovarian = tested on: OVCAR-5 ovarian
HCC-2998 colon = tested on: HCC-2998 colon
MOLT-4 leukemia = tested on: MOLT-4 leukemia
MDA-MB-468 breast = tested on: MDA-MB-468 breast
SF-539 CNS = tested on: SF-539 CNS
BT-549 breast = tested on: BT-549 breast
MDA-MB-231 breast = tested on: MDA-MB-231 breast
SK-OV-3 ovarian = tested on: SK-OV-3 ovarian
NCI-H460 NSCLC = tested on: NCI-H460 NSCLC
SK-MEL-2 melanoma = tested on: SK-MEL-2 melanoma
CAKI-1 renal = tested on: CAKI-1 renal
M14 melanoma = tested on: M14 melanoma
SK-MEL-28 melanoma = tested on: SK-MEL-28 melanoma
HOP-92 NSCLC = tested on: HOP-92 NSCLC
A498 renal = tested on: A498 renal
RXF 393 renal = tested on: RXF 393 renal
HT29 colon = tested on: HT29 colon
SNB-19 CNS = tested on: SNB-19 CNS
CCRF-CEM leukemia = tested on: CCRF-CEM leukemia
HL-60(TB) leukemia = tested on: HL-60(TB) leukemia
PC-3 prostate = tested on: PC-3 prostate
UACC-62 melanoma = tested on: UACC-62 melanoma
NCI-H322M lung = tested on: NCI-H322M lung
MCF7 breast = tested on: MCF7 breast
A549 NSCLC = tested on: A549 NSCLC
LOX IMVI melanoma = tested on: LOX IMVI melanoma
MDA-MB-435 melanoma = tested on: MDA-MB-435 melanoma
HS 578T breast = tested on: HS 578T breast
K-562 leukemia = tested on: K-562 leukemia
NCI-H522 lung = tested on: NCI-H522 lung
NCI-H226 lung = tested on: NCI-H226 lung
SN12C renal = tested on: SN12C renal
786-0 renal = tested on: 786-0 renal
EKVX NSCLC = tested on: EKVX NSCLC
ACHN renal = tested on: ACHN renal
T-47D breast = tested on: T-47D breast
SNB-75 CNS = tested on: SNB-75 CNS
SF-295 CNS = tested on: SF-295 CNS
TK-10 renal = tested on: TK-10 renal
KM12 colon = tested on: KM12 colon
U251 glioblastoma = tested on: U251 glioblastoma
COLO 205 colon = tested on: COLO 205 colon
IGROV1 ovarian = tested on: IGROV1 ovarian
HCT-15 colon = tested on: HCT-15 colon
NCI/ADR-RES ovarian = tested on: NCI/ADR-RES ovarian
UO-31 renal = tested on: UO-31 renal
SW-620 colon = tested on: SW-620 colon
OVCAR-3 ovarian = tested on: OVCAR-3 ovarian
HOP-62 NSCLC = tested on: HOP-62 NSCLC
SR leukemia = tested on: SR leukemia

## CC[C@H](CC#N)OC(=O)N[C@@H](C)c1cccc(NC(=O)Nc2ccc(-c3cnco3)c(OC)c2)c1
SK-MEL-5 melanoma
  GI50: 78.7 nM
  TGI: 348 nM
RPMI-8226 leukemia
  GI50: 216 nM
  TGI: 957 nM
SF-268 CNS
  GI50: 244 nM
  TGI: 11000 nM
OVCAR-4 ovarian
  GI50: 373 nM
  TGI: 15800 nM
UACC-257 melanoma
  GI50: 288 nM
  TGI: 11500 nM
HCT-116 colon
  GI50: 75 nM
  TGI: 10600 nM
DU-145 prostate
  GI50: 168 nM
  TGI: 11000 nM
NCI-H23 lung
  GI50: 154 nM
  TGI: 664 nM
OVCAR-8 ovarian
  GI50: 354 nM
  TGI: 13900 nM
MALME-3M melanoma
  GI50: 168 nM
  TGI: 13100 nM
OVCAR-5 ovarian
  GI50: 270 nM
  TGI: > 100000 nM
HCC-2998 colon
  GI50: 212 nM
  TGI: 1450 nM
MOLT-4 leukemia
  GI50: 20 nM
  TGI: 36.7 nM
MDA-MB-468 breast
  GI50: 140 nM
  TGI: 825 nM
SF-539 CNS
  GI50: 108 nM
  TGI: 8860 nM
BT-549 breast
  GI50: 115 nM
  TGI: 951 nM
MDA-MB-231 breast
  GI50: 300 nM
  TGI: 20600 nM
SK-OV-3 ovarian
  GI50: 57.4 nM
  TGI: 898 nM
NCI-H460 NSCLC
  GI50: 74 nM
  TGI: 263 nM
SK-MEL-2 melanoma
  GI50: 506 nM
  TGI: 4370 nM
CAKI-1 renal
  GI50: 243 nM
  TGI: 11900 nM
M14 melanoma
  GI50: 159 nM
  TGI: 1140 nM
SK-MEL-28 melanoma
  GI50: 126 nM
  TGI: 11000 nM
HOP-92 NSCLC
  GI50: 637 nM
  TGI: 22700 nM
A498 renal
  GI50: 56.9 nM
  TGI: 1720 nM
RXF 393 renal
  GI50: 168 nM
  TGI: 660 nM
HT29 colon
  GI50: 137 nM
  TGI: > 100000 nM
SNB-19 CNS
  GI50: 166 nM
  TGI: > 100000 nM
CCRF-CEM leukemia
  GI50: 64.9 nM
  TGI: 248 nM
HL-60(TB) leukemia
  GI50: 53.9 nM
  TGI: 220 nM
PC-3 prostate
  GI50: 178 nM
  TGI: 10900 nM
UACC-62 melanoma
  GI50: 236 nM
  TGI: 10600 nM
NCI-H322M lung
  GI50: 275 nM
  TGI: 14700 nM
MCF7 breast
  GI50: 159 nM
  TGI: 11300 nM
A549 NSCLC
  GI50: 65.7 nM
  TGI: 1680 nM
LOX IMVI melanoma
  GI50: 68.9 nM
  TGI: 1400 nM
MDA-MB-435 melanoma
  GI50: 353 nM
  TGI: 14600 nM
HS 578T breast
  GI50: 171 nM
  TGI: 1540 nM
K-562 leukemia
  GI50: 48.4 nM
  TGI: 11200 nM
NCI-H522 lung
  GI50: 428 nM
  TGI: 11900 nM
NCI-H226 lung
  GI50: 297 nM
  TGI: 10500 nM
SN12C renal
  GI50: 314 nM
  TGI: 16600 nM
786-0 renal
  GI50: 154 nM
  TGI: 1870 nM
EKVX NSCLC
  GI50: 349 nM
  TGI: 12300 nM
ACHN renal
  GI50: 210 nM
  TGI: 12700 nM
T-47D breast
  GI50: 486 nM
  TGI: 10600 nM
SNB-75 CNS
  GI50: 685 nM
  TGI: 14300 nM
SF-295 CNS
  GI50: 316 nM
  TGI: 12000 nM
TK-10 renal
  GI50: 416 nM
  TGI: 18500 nM
KM12 colon
  GI50: 168 nM
  TGI: 12400 nM
U251 glioblastoma
  GI50: 45.5 nM
  TGI: 11400 nM
COLO 205 colon
  GI50: 46.3 nM
  TGI: 13100 nM
IGROV1 ovarian
  GI50: 60.7 nM
  TGI: 10600 nM
HCT-15 colon
  GI50: 286 nM
  TGI: 11800 nM
NCI/ADR-RES ovarian
  GI50: 5600 nM
  TGI: 18000 nM
UO-31 renal
  GI50: 354 nM
  TGI: 8350 nM
SW-620 colon
  GI50: 77.7 nM
  TGI: 12000 nM
OVCAR-3 ovarian
  GI50: 57.5 nM
  TGI: 10600 nM
HOP-62 NSCLC
  GI50: 258 nM
  TGI: 10700 nM

## C[C@@H]1COCCN1c1cc(C2(S(C)(=N)=O)CC2)nc(-c2ccnc3[nH]ccc23)n1 (stereo partly specified)
SK-MEL-5 melanoma
  GI50: 3620 nM
  TGI: 12800 nM
RPMI-8226 leukemia
  GI50: 1400 nM
  TGI: 3200 nM
SF-268 CNS
  GI50: 6170 nM
  TGI: 24000 nM
OVCAR-4 ovarian
  GI50: 2000 nM
  TGI: 9930 nM
UACC-257 melanoma
  GI50: 13000 nM
  TGI: 27500 nM
HCT-116 colon
  GI50: 2540 nM
  TGI: > 100000 nM
DU-145 prostate
  GI50: 3170 nM
  TGI: 14000 nM
NCI-H23 lung
  GI50: 1240 nM
  TGI: 3260 nM
OVCAR-8 ovarian
  GI50: 5490 nM
  TGI: 18000 nM
MALME-3M melanoma
  GI50: 5670 nM
  TGI: 16800 nM
OVCAR-5 ovarian
  GI50: 3980 nM
  TGI: 22400 nM
HCC-2998 colon
  GI50: 967 nM
  TGI: 3580 nM
MOLT-4 leukemia
  GI50: 1020 nM
  TGI: 2260 nM
MDA-MB-468 breast
  GI50: 4800 nM
  TGI: 18600 nM
SF-539 CNS
  GI50: 1290 nM
  TGI: 5890 nM
BT-549 breast
  GI50: 1930 nM
  TGI: 9010 nM
MDA-MB-231 breast
  GI50: 5680 nM
  TGI: > 44600 nM
SK-OV-3 ovarian
  GI50: 1780 nM
  TGI: 18900 nM
NCI-H460 NSCLC
  GI50: 541 nM
  TGI: 4870 nM
SK-MEL-2 melanoma
  GI50: 685 nM
  TGI: 2460 nM
CAKI-1 renal
  GI50: 2840 nM
  TGI: > 40000 nM
M14 melanoma
  GI50: 1640 nM
  TGI: 4360 nM
SR leukemia
  GI50: 153 nM
  TGI: 450 nM
SK-MEL-28 melanoma
  GI50: 11600 nM
  TGI: 24800 nM
HOP-92 NSCLC
  GI50: 2040 nM
  TGI: > 28400 nM
A498 renal
  GI50: 637 nM
  TGI: 2250 nM
RXF 393 renal
  GI50: 2670 nM
  TGI: 9580 nM
HT29 colon
  GI50: 3550 nM
  TGI: 15800 nM
SNB-19 CNS
  GI50: 6130 nM
  TGI: 57300 nM
CCRF-CEM leukemia
  GI50: 638 nM
  TGI: 1900 nM
HL-60(TB) leukemia
  GI50: 1000 nM
  TGI: 2530 nM
PC-3 prostate
  GI50: 5400 nM
  TGI: 31300 nM
UACC-62 melanoma
  GI50: 3010 nM
  TGI: 14400 nM
NCI-H322M lung
  GI50: 1110 nM
  TGI: 5590 nM
MCF7 breast
  GI50: 615 nM
  TGI: > 39400 nM
A549 NSCLC
  GI50: 3540 nM
  TGI: > 44400 nM
LOX IMVI melanoma
  GI50: 1290 nM
  TGI: 8310 nM
MDA-MB-435 melanoma
  GI50: 3710 nM
  TGI: 11300 nM
HS 578T breast
  GI50: 2450 nM
  TGI: 12000 nM
K-562 leukemia
  GI50: 2350 nM
  TGI: 6730 nM
NCI-H522 lung
  GI50: 9390 nM
  TGI: 25000 nM
NCI-H226 lung
  GI50: 8140 nM
  TGI: 46200 nM
SN12C renal
  GI50: 2960 nM
  TGI: 17100 nM
786-0 renal
  GI50: 1820 nM
  TGI: 5720 nM
EKVX NSCLC
  GI50: 4780 nM
  TGI: 19900 nM
ACHN renal
  GI50: 710 nM
  TGI: 3600 nM
T-47D breast
  GI50: 8700 nM
  TGI: > 43100 nM
SNB-75 CNS
  GI50: 4520 nM
  TGI: 14300 nM
SF-295 CNS
  GI50: 2470 nM
  TGI: 9130 nM
TK-10 renal
  GI50: 756 nM
  TGI: 3580 nM
KM12 colon
  GI50: 1630 nM
  TGI: 22300 nM
U251 glioblastoma
  GI50: 4850 nM
  TGI: 29000 nM
COLO 205 colon
  GI50: 9750 nM
  TGI: 31100 nM
IGROV1 ovarian
  GI50: 2670 nM
  TGI: 23000 nM
HCT-15 colon
  GI50: 2210 nM
  TGI: 13700 nM
NCI/ADR-RES ovarian
  GI50: 17000 nM
  TGI: 53100 nM
SW-620 colon
  GI50: 2770 nM
  TGI: 50400 nM
OVCAR-3 ovarian
  GI50: 3030 nM
  TGI: 18100 nM
HOP-62 NSCLC
  GI50: 1340 nM
  TGI: 3580 nM
